# From ChEMBL document CHEMBL5096238 (J Med Chem, 2022)
# Columns and labels:
# [1] = system: Hs746T; assay: cells; details: Homo sapiens, 120 h
# [2] = target: Hepatocyte growth factor receptor (Homo sapiens, UniProt P08581); assay: Inhibition of N-terminal His/SUMO tagged wild type human c-Met (1038 to 1346 residues) transfected in Escherichia coli using Tyr06 peptide as substrate incubated for 1 hr in presence of ATP by FRET-based Z'-Lyte assay
# [3] = target: T1, Tyrosine-protein kinase receptor UFO (Homo sapiens, UniProt P30530); assay: Inhibition of AXL (unknown origin)
# T1 sequence (P30530 whole entry): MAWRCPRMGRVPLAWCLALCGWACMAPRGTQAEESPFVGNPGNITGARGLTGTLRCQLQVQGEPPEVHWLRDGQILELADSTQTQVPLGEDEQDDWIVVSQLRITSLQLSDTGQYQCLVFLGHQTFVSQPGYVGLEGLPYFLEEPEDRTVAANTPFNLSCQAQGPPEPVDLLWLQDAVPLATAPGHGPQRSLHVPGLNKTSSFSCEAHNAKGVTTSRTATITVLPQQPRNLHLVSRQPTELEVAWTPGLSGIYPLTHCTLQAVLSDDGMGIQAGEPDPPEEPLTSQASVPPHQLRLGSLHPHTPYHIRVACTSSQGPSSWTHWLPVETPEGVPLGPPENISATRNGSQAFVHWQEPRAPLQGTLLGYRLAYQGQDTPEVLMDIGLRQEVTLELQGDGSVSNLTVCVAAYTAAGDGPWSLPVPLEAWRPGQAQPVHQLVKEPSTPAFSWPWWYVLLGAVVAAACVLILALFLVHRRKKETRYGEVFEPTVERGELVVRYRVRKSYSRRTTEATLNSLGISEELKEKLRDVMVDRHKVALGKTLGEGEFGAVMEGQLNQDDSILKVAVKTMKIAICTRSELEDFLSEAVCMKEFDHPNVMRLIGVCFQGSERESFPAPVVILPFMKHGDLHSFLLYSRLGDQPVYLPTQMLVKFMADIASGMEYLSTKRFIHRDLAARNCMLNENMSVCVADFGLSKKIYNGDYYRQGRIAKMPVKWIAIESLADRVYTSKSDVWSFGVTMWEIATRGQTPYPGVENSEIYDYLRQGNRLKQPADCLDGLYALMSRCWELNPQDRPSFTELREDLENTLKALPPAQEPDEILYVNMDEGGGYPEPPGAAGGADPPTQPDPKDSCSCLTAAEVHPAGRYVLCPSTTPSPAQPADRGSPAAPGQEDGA
# [4] = Apparent permeability across apical to basolateral side in human Caco-2 cells at 10 uM incubated for 120 mins by LC-MS/MS analysis; assay type: ADME, cell-based
# [5] = system: BaF3; assay: cells; details: Mus musculus, BaF3, 72 h
# [6] = system: BaF3; assay: cells; details: Mus musculus, BaF3, 72 h; remark: listed apart in the source
# [7] = system: BaF3; assay: cells; details: Mus musculus, BaF3, 72 h; remark: listed apart in the source
# [8] = system: BaF3; assay: cells; details: Mus musculus, BaF3, 72 h; remark: listed apart in the source
# [9] = system: SNU-16; assay: cells; details: Homo sapiens, SNU-16, 120 h
# [10] = system: BaF3; assay: cells; details: Mus musculus, BaF3, 72 h; remark: listed apart in the source
# [11] = system: BaF3; assay: cells; details: Mus musculus, BaF3, 72 h; remark: listed apart in the source
# [12] = system: BaF3; assay: cells; details: Mus musculus, BaF3, 72 h; remark: listed apart in the source
# [13] = system: AGS; assay: cells; details: Homo sapiens, 120 h
# [14] = system: BaF3; assay: cells; details: Mus musculus, BaF3, 72 h; remark: listed apart in the source
# Chain of Hepatocyte growth factor receptor (P08581 whole entry, the tested form may be a part): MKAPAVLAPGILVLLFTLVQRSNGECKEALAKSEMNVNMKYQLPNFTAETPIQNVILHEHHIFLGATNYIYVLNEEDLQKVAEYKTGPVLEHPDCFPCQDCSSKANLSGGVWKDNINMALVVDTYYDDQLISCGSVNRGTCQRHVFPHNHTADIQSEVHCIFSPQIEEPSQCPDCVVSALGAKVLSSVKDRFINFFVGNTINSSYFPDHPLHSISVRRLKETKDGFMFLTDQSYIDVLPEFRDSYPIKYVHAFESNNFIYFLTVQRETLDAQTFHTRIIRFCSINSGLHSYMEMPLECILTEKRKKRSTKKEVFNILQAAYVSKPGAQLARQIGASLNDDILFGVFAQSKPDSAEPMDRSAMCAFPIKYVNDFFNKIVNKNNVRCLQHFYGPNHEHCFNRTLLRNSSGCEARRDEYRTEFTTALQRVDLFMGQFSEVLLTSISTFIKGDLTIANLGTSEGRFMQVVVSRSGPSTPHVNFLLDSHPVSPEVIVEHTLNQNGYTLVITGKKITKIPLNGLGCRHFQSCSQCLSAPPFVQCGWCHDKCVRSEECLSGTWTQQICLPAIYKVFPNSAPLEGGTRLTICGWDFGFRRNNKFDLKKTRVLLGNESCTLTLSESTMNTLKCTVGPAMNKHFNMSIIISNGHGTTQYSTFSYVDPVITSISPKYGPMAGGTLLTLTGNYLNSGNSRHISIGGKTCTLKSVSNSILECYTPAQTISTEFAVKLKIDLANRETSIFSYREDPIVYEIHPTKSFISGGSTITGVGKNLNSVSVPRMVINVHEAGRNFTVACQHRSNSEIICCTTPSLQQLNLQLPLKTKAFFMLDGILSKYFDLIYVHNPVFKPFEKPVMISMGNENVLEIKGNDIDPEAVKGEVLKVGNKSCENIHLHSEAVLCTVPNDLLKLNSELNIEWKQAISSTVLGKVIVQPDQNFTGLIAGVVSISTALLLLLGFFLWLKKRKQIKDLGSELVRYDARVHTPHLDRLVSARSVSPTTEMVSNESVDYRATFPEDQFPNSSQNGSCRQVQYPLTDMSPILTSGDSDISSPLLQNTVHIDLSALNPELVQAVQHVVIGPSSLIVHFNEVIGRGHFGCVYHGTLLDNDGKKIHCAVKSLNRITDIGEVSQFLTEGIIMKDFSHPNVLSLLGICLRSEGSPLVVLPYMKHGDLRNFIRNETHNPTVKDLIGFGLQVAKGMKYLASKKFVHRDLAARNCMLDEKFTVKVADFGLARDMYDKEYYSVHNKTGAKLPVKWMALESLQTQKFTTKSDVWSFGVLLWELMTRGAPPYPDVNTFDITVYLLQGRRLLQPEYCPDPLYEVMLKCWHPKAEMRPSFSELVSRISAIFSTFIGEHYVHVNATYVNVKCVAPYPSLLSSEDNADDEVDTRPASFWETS
IC50 [1],IC50 [2],Structure (SMILES),other results
1.44 µM,0.0204 µM,Cn1cc(-c2cnc3ccc(CCn4nc(-c5cccc(OC(F)(F)F)c5)ccc4=O)cc3c2)cn1,–
0.375 µM,0.0184 µM,CNC(=O)c1ccc(-c2ccc(=O)n(CCc3ccc4ncc(NCCN5CCOCC5)cc4c3)n2)cc1C(F)(F)F,–
–,0.208 µM,O=c1ccc(-c2ccc(N3CCOCC3)cc2)nn1CCc1ccc2ncccc2c1,–
–,2 µM,O=c1ccc(-c2ccccc2)nn1CCc1ccc2ncccc2c1,–
0.331 µM,0.0151 µM,Cn1cc(-c2cnc3ccc(CCn4nc(-c5cccc([N+](=O)[O-])c5)ccc4=O)cc3c2)cn1,–
0.281 µM,0.0082 µM,Cc1ccc(-c2ccc(=O)n(CCc3ccc4ncc(-c5cnn(C)c5)cc4c3)n2)cc1,–
1.9 µM,0.0075 µM,COC(=O)c1ccc(-c2ccc(=O)n(CCc3ccc4ncc(-c5cnn(C)c5)cc4c3)n2)cc1,–
0.199 µM,0.0107 µM,CNC(=O)c1ccc(-c2ccc(=O)n(CCc3ccc4ncc(N5CCN(C)CC5)cc4c3)n2)cc1C(F)(F)F,–
–,0.663 µM,Cn1cc(-c2ccc(-c3ccc(=O)n(CCc4ccc5ncccc5c4)n3)cc2)cn1,–
–,0.0149 µM,Cn1cc(-c2cnc3ccc(CCn4nc(-c5ccccc5)ccc4=O)cc3c2)cn1,–
0.0934 µM,0.0132 µM,CNC(=O)c1ccc(-c2ccc(=O)n(CCc3ccc4ncc(N5CCC(N6CCOCC6)CC5)cc4c3)n2)cc1C(F)(F)F,–
0.623 µM,0.0087 µM,Cn1cc(-c2cnc3ccc(CCn4nc(-c5cccc(N)c5)ccc4=O)cc3c2)cn1,–
0.106 µM,0.0067 µM,CNC(=O)c1ccc(-c2ccc(=O)n(CCc3ccc4ncc(-c5cn[nH]c5)cc4c3)n2)cc1C(F)(F)F,–
0.211 µM,0.0114 µM,CNC(=O)c1ccc(-c2ccc(=O)n(CCc3ccc4ncc(N5CC6CNCC6C5)cc4c3)n2)cc1C(F)(F)F (stereo not given),–
0.329 µM,0.0089 µM,Cc1cccc(-c2ccc(=O)n(CCc3ccc4ncc(-c5cnn(C)c5)cc4c3)n2)c1,–
0.13 µM,0.0105 µM,Cn1cc(-c2cnc3ccc(CCn4nc(-c5cccc(C#N)c5)ccc4=O)cc3c2)cn1,–
–,0.138 µM,Cn1cc(-c2cnc3ccc(Cn4nc(-c5ccccc5)ccc4=O)cc3c2)cn1,–
0.397 µM,0.0106 µM,Cn1cc(-c2cnc3ccc(CCn4nc(-c5cccc(F)c5)ccc4=O)cc3c2)cn1,–
2.5 µM,0.0101 µM,Cn1cc(-c2cnc3ccc(CCn4nc(-c5ccc(C(=O)O)cc5)ccc4=O)cc3c2)cn1,–
–,0.0054 µM,CNC(=O)c1ccc(-c2ccc(=O)n(CCc3ccc4ncc(-c5cnn(C6CCOCC6)c5)cc4c3)n2)cc1C(F)(F)F,IC50 [3]: 0.164 µM
0.0201 µM,0.0042 µM,CNC(=O)c1ccc(-c2ccc(=O)n(CCc3ccc4ncc(-c5cnn(C6CCNCC6)c5)cc4c3)n2)cc1C(F)(F)F,–
0.0119 µM,0.0048 µM,CNC(=O)c1ccc(-c2ccc(=O)n(CCc3ccc4ncc(-c5cnn(C)c5)cc4c3)n2)cc1C(F)(F)F,–
0.0385 µM,0.0099 µM,CNC(=O)c1ccc(-c2ccc(=O)n(CC(F)(F)c3ccc4ncc(-c5cnn(C)c5)cc4c3)n2)cc1C(F)(F)F,–
0.0459 µM,0.0074 µM,CNC(=O)c1ccc(-c2ccc(=O)n(CCc3ccc4ncc(-c5cnn(CCOC)c5)cc4c3)n2)cc1C(F)(F)F,–
–,> 10 µM,Cn1cc(-c2ccc(-c3ccc(=O)n(Cc4ccc5ncccc5c4)n3)cc2)cn1,–

IC50 [1],IC50 [2],Structure (SMILES),other results
0.112 µM,0.0054 µM,Cn1cc(-c2cnc3ccc(CCn4nc(-c5cccc(C(F)(F)F)c5)ccc4=O)cc3c2)cn1,–
–,> 10 µM,O=c1ccc(-c2ccc(N3CCOCC3)cc2)nn1Cc1ccc2ncccc2c1,–
–,0.171 µM,O=c1ccc(-c2ccccc2)nn1Cc1ccc2ncc(N3CCOCC3)cc2c1,–
–,> 10 µM,O=c1ccc(-c2ccccc2)nn1Cc1ccc2ncccc2c1,–
0.228 µM,0.0076 µM,Cn1cc(-c2cnc3ccc(CCn4nc(-c5cc(F)c(F)c(F)c5)ccc4=O)cc3c2)cn1,–
0.187 µM,0.005 µM,CNC(=O)c1ccc(-c2ccc(=O)n(CCc3ccc4ncc(-c5cnn(CCN6CCOCC6)c5)cc4c3)n2)cc1C(F)(F)F,–
–,0.0416 µM,O=c1ccc(-c2ccccc2)nn1CCc1ccc2ncc(N3CCOCC3)cc2c1,–
0.428 µM,0.0264 µM,CNC(=O)c1ccc(-c2ccc(=O)n(CCc3ccc4ncc(NCCN5CCCCC5)cc4c3)n2)cc1C(F)(F)F,–
0.0228 µM,0.0143 µM,CNC(=O)c1ccc(-c2ccc(=O)n(CCc3ccc4ncc(N5CCC(N6CCCC6)CC5)cc4c3)n2)cc1C(F)(F)F,–
0.708 µM,0.0132 µM,Cn1cc(-c2cnc3ccc(CCn4nc(-c5ccc(F)c(F)c5)ccc4=O)cc3c2)cn1,–
0.103 µM,0.004 µM,COC(=O)c1ccc(-c2ccc(=O)n(CCc3ccc4ncc(-c5cnn(C)c5)cc4c3)n2)cc1C(F)(F)F,–
0.447 µM,0.0786 µM,CNC(=O)c1ccc(-c2ccc(=O)n(CCOc3ccc4ncc(-c5cnn(C)c5)cc4c3)n2)cc1C(F)(F)F,–
3.01 µM,0.0356 µM,CNC(=O)c1ccc(-c2ccc(=O)n(/C=C/c3ccc4ncc(-c5cnn(C)c5)cc4c3)n2)cc1C(F)(F)F,–
1.36 µM,0.0147 µM,COc1cccc(-c2ccc(=O)n(CCc3ccc4ncc(-c5cnn(C)c5)cc4c3)n2)c1,–
0.436 µM,0.0068 µM,Cn1cc(-c2cnc3ccc(CCn4nc(-c5cccc(Br)c5)ccc4=O)cc3c2)cn1,–
0.163 µM,0.0033 µM,O=C1NCCCCCn2cc(cn2)-c2cnc3ccc(cc3c2)CCn2nc(ccc2=O)-c2ccc1c(C(F)(F)F)c2,"Papp A→B at 2 h, 10 µM [4]: 0.29 ×10⁻⁶ cm/s"
0.488 µM,0.0183 µM,Cn1cc(-c2cnc3ccc(CCn4nc(-c5ccc(F)cc5)ccc4=O)cc3c2)cn1,–
0.0478 µM,0.0139 µM,CNC(=O)c1ccc(-c2ccc(=O)n(CCc3ccc4ncc(N5CCC(N6CCN(C)CC6)CC5)cc4c3)n2)cc1C(F)(F)F,–
4.29 µM,0.0058 µM,Cn1cc(-c2cnc3ccc(CCn4nc(-c5ccc(C(=O)O)c(C(F)(F)F)c5)ccc4=O)cc3c2)cn1,–
0.638 µM,0.0259 µM,Cn1cc(-c2cnc3ccc(CCn4nc(-c5ccccc5F)ccc4=O)cc3c2)cn1,–
0.137 µM,0.004 µM,CNC(=O)c1ccc(-c2ccc(=O)n(CCc3ccc4ncc(-c5cnn(C)c5)cc4c3)n2)cc1,–
0.0045 µM,–,CN1CCC(COc2cnc(-c3cccc(Cn4nc(-c5cccc(C#N)c5)ccc4=O)c3)nc2)CC1 [TEPOTINIB],IC50 [5]: 0.0467 µM; IC50 [6]: 0.0025 µM; IC50 [7]: 2.39 µM; IC50 [8]: 0.0088 µM; IC50 [9]: 0.363 µM; IC50 [10]: 0.0015 µM; IC50 [11]: 0.0366 µM; IC50 [12]: 3.06 µM; IC50 [13]: 1.45 µM; IC50 [14]: 0.01 µM
0.303 µM,0.0049 µM,Cn1cc(-c2cnc3ccc(CCn4nc(-c5cccc(Cl)c5)ccc4=O)cc3c2)cn1,–
0.115 µM,0.0028 µM,CNC(=O)c1ccc(-c2ccc(=O)n(CCc3ccc4ncc(-c5cnn(CCO)c5)cc4c3)n2)cc1C(F)(F)F,–
10 µM,2.28 µM,CNC(=O)c1ccc(-c2ccc(=O)n(NC(=O)c3ccc4ncc(-c5cnn(C)c5)cc4c3)n2)cc1C(F)(F)F,–
